Legend:
human RIPK1 = human RIPK1 (Homo sapiens (Human), UniProt Q13546); assay: KINOMEscan binding assay, human RIPK1; details: Table 21
Protocol: (§1) Binding affinity of the test compounds for human MLKL (full length), mouse MLKL (full length), human RIPK1 and human RIPK3 was determined using the KINOMEscan™ technology developed by DiscoverX (USA; http://www.discoverx.com). The assay was conducted according to manufacturer instructions.
(§2) Kinase assays. For most assays, kinase-tagged T7 phage strains were grown in parallel in 24-well blocks in an E. coli host derived from the BL21 strain. E. coli were grown to log-phase and infected with T7 phage from a frozen stock (multiplicity of infection=0.4) and incubated with shaking at 32° C. until lysis (90-150 minutes). The lysates were centrifuged (6,000×g) and filtered (0.2 μm) to remove cell debris. The remaining kinases were produced in HEK-293 cells and subsequently tagged with DNA for qPCR detection. […] The liganded beads were blocked with excess biotin and washed with blocking buffer (SeaBlock (Pierce), 1% BSA, 0.05% Tween 20, 1 mM DTT) to remove unbound ligand and to reduce non-specific phage binding. […] All reactions were performed in polypropylene 384-well plates in a final volume of 20 μL. […] The kinase concentration in the eluates was measured by qPCR.
(§3) An 11-point 3-fold serial dilution of each test compound was prepared in 100% DMSO at 100× final test concentration and subsequently diluted to 1× in the assay (final DMSO concentration=1%). Most Kos were determined using a compound top concentration=30,000 nM.
(§4) KD for each test compound was calculated with a standard dose-response curve using the Hill equation (equation (1)): […]
(§5) The Hill Slope was set to −1.
(§6) Curves were fitted using a non-linear least square fit with the Levenberg-Marquardt algorithm.

human RIPK3 = human RIPK3 (Homo sapiens (Human), UniProt Q9Y572); assay: KINOMEscan binding assay, human RIPK3; details: Table 21
Sequence of human RIPK3 (Q9Y572 whole entry): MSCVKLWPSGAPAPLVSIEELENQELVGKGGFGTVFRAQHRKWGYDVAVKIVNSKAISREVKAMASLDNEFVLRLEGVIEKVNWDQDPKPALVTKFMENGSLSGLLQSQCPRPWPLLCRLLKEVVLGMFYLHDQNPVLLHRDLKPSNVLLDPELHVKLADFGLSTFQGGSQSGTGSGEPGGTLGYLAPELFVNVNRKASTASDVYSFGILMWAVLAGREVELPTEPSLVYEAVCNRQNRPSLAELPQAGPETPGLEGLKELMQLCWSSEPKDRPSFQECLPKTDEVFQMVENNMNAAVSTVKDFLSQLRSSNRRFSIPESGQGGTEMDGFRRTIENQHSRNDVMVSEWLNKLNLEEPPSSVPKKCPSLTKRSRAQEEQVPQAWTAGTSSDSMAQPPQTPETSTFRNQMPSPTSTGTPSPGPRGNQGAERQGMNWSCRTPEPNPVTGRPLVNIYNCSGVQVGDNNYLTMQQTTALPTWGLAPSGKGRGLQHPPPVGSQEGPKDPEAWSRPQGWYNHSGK
Protocol: as §1, §2, §3, §4, §5, §6

Sequence of human RIPK1 (Q13546 whole entry): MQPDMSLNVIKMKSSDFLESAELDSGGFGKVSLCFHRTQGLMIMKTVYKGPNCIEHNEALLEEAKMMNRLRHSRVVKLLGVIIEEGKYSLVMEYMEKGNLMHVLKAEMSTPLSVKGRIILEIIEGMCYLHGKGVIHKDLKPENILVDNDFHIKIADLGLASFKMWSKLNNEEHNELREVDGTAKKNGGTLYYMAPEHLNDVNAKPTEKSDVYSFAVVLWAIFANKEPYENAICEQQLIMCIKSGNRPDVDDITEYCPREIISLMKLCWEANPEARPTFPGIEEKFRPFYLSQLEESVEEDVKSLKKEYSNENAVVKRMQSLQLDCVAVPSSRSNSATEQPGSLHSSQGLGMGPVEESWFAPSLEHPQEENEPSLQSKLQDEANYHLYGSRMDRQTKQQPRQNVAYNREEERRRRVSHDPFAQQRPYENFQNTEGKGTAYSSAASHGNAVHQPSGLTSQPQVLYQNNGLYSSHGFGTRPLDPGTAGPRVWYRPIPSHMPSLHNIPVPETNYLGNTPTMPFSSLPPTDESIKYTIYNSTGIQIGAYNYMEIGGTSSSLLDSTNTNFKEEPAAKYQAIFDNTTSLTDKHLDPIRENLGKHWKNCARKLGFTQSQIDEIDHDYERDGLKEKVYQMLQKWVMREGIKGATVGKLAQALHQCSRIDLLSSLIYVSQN

Compound: C[C@H](Oc1cc(-c2nn(C)c3c(C4=CCOCC4)cnc(N)c23)ccc1NS(=O)(=O)C(F)F)c1ccc(F)cc1 [Compound 43, (S)-N-(4-(4-amino-7-(3,6-dihydro-2H-pyran-4-yl)-1-methyl-1H-pyrazolo[4,3-c]pyridin-3-yl)-2-(1-(4-fluorophenyl)ethoxy)phenyl)-1,1-difluoromethanesulfonamide]
- Kd (human RIPK1): > 10 µM
- Kd (human RIPK3): > 10 µM

Compound: C[C@H](Oc1cc(-c2nn(C)c3c(-c4ccc5c(c4)CC(=O)N5C)cnc(N)c23)ccc1NS(=O)(=O)C(F)F)c1ccc(F)cc1 [Compound 165, (S)-N-(4-(4-amino-1-methyl-7-(1-methyl-2-oxoindolin-5-yl)-1H-pyrazolo[4,3-c]pyridin-3-yl)-2-(1-(4-fluorophenyl)ethoxy)phenyl)-1,1-difluoromethanesulfonamide]
- Kd (human RIPK1): > 10 µM
- Kd (human RIPK3): > 10 µM

Compound: C[C@H](Oc1cc(-c2nn(C)c3c(Cc4ccccc4)cnc(N)c23)ccc1NS(=O)(=O)C(F)F)c1ccc(F)cc1 [Compound 34, (S)-N-(4-(4-amino-7-benzyl-1-methyl-1H-pyrazolo[4,3-c]pyridin-3-yl)-2-(1-(4-fluorophenyl)ethoxy)phenyl)-1,1-difluoromethanesulfonamide]
- Kd (human RIPK1): > 10 µM
- Kd (human RIPK3): > 10 µM

Compound: CCS(=O)(=O)Nc1ccc(-c2cnn3ccnc(N)c23)cc1OCc1ccc(F)cc1 [Compound 64, N-(4-(4-Aminopyrazolo[1,5-a]pyrazin-3-yl)-2-((4-fluorophenyl)methoxy)phenyl)ethane-1-sulfonamide]
- Kd (human RIPK1): > 10 µM
- Kd (human RIPK3): > 10 µM

Compound: CC(C)n1nc(-c2ccc(NS(=O)(=O)C(F)F)c(O[C@@H](C)c3ccc(F)cc3)c2)c2c(N)ncc(-c3cnn(C)c3)c21 [Compound 52, (S)-N-(4-(4-amino-1-isopropyl-7-(1-methyl-1H-pyrazol-4-yl)-1H-pyrazolo[4,3-c]pyridin-3-yl)-2-(1-(4-fluorophenyl)ethoxy)phenyl)-1,1-difluoromethane-sulfonamide]
- Kd (human RIPK1): > 10 µM
- Kd (human RIPK3): > 10 µM

Compound: C[C@H](Oc1cc(-c2nn(C)c3c(-c4cnn(C5CCN(CC(F)(F)F)CC5)c4)cnc(N)c23)ccc1NS(=O)(=O)C(F)F)c1ccc(F)cc1 [Compound 61, (S)-N-(4-(4-amino-1-methyl-7-(1-(1-(2,2,2-trifluoroethyl)piperidin-4-yl)-1H-pyrazol-4-yl)-1H-pyrazolo[4,3-c]pyridin-3-yl)-2-(1-(4-fluorophenyl)ethoxy)phenyl)-1,1-difluoromethanesulfonamide]
- Kd (human RIPK1): > 10 µM
- Kd (human RIPK3): > 10 µM

Compound: CC1CN(C)CC(C)C1n1cc(-c2cnc(N)c3c(-c4ccc(NS(=O)(=O)C(F)F)c(O[C@@H](C)c5ccc(F)cc5)c4)nn(C)c23)cn1 (stereo partly drawn) [Compound 172, N-(4-(4-amino-1-methyl-7-[1-(1,3,5-trimethylpiperidin-4-yl)-1H-pyrazol-4-yl]-1H-pyrazolo[4,3-c]pyridin-3-yl}-2-[(1S)-1-(4-fluorophenyl)ethoxy]phenyl)-1,1-difluoromethanesulfonamide]
- Kd (human RIPK1): 0.1 to 10 µM
- Kd (human RIPK3): > 10 µM

Compound: C[C@H](Oc1cc(-c2cnn3ccnc(N)c23)ccc1NS(=O)(=O)C(F)F)c1ccc(F)cc1 [Compound 22, (S)—N-(4-(4-aminopyrazolo[1,5-a]pyrazin-3-yl)-2-(1-(4-fluorophenyl)ethoxy)phenyl)-1,1-difluoromethanesulfonamide]
- Kd (human RIPK1): > 10 µM
- Kd (human RIPK3): > 10 µM

Compound: CCS(=O)(=O)Nc1ccc(-c2nn(C)c3c(NC(C)=O)cnc(N)c23)cc1OCc1ccc(F)cc1 [Compound 2, N-(4-amino-3-(4-(ethylsulfonamido)-3-((4-fluorobenzyl)oxy)phenyl)-1-methyl-1H-pyrazolo[4,3-c]pyridin-7-yl)acetamide]
- Kd (human RIPK1): > 10 µM
- Kd (human RIPK3): > 10 µM

Compound: C[C@H](Oc1cc(-c2nn(C)c3c(-c4cnn(C5CCC(F)(F)C5)c4)cnc(N)c23)ccc1NS(=O)(=O)C(F)F)c1ccc(F)cc1 (stereo partly drawn) [Compound 120, N-(4-{4-amino-7-[1-(3,3-difluorocyclopentyl)-1H-pyrazol-4-yl]-1-methyl-1H-pyrazolo[4,3-c]pyridin-3-yl}-2-[(1S)-1-(4-fluorophenyl)ethoxy]phenyl)-1,1-difluoromethanesulfonamide]
- Kd (human RIPK1): > 10 µM
- Kd (human RIPK3): > 10 µM

Compound: COC[C@H](Oc1cc(-c2nn(C)c3c(-c4cnn(C5CCOCC5)c4)cnc(N)c23)ccc1NS(=O)(=O)C(F)F)c1ccc(F)cc1 [Compound 111, (R)—N-(4-(4-amino-1-methyl-7-(1-(tetrahydro-2H-pyran-4-yl)-1H-pyrazol-4-yl)-1H-pyrazolo[4,3-c]pyridin-3-yl)-2-(1-(4-fluorophenyl)-2-methoxyethoxy)phenyl)-1,1-difluoromethanesulfonamide]
- Kd (human RIPK1): > 10 µM
- Kd (human RIPK3): > 10 µM

Compound: C[C@H](Oc1cc(-c2nn(C)c3c(-c4cnn(C5CC6(C5)CN(C)C6)c4)cnc(N)c23)ccc1NS(=O)(=O)C(F)F)c1ccc(F)cc1 [Compound 99, (S)-N-(4-(4-amino-1-methyl-7-(1-(2-methyl-2-azaspiro[3.3]heptan-6-yl)-1H-pyrazol-4-yl)-1H-pyrazolo[4,3-c]pyridin-3-yl)-2-(1-(4-fluorophenyl)eth-oxy)phenyl)-1,1-difluoromethane-sulfonamide]
- Kd (human RIPK1): > 10 µM
- Kd (human RIPK3): > 10 µM

Compound: CC1CNCC(n2cc(-c3cnc(N)c4c(-c5ccc(NS(=O)(=O)C(F)F)c(O[C@@H](C)c6ccc(F)cc6)c5)nn(C)c34)cn2)C1 (stereo partly drawn) [Compound 95, N-(4-(4-amino-1-methyl-7-(1-(5-methylpiperidin-3-yl)-1H-pyrazol-4-yl)-1H-pyrazolo[4,3-c]pyridin-3-yl)-2-((S)-1-(4-fluorophenyl)ethoxy)phenyl)-1,1-difluoromethane-sulfonamide]
- Kd (human RIPK1): > 10 µM
- Kd (human RIPK3): > 10 µM

Compound: Cc1noc(C)c1-c1cnc(N)c2c(-c3ccc(NS(=O)(=O)C(F)F)c(O[C@@H](C)c4ccc(F)cc4)c3)nn(C)c12 [Compound 33, (S)-N-(4-(4-amino-7-(3,5-dimethylisoxazol-4-yl)-1-methyl-1H-pyrazolo[4,3-c]pyridin-3-yl)-2-(1-(4-fluorophenyl)ethoxy)phenyl)-1,1-difluoromethanesulfonamide]
- Kd (human RIPK1): > 10 µM
- Kd (human RIPK3): > 10 µM

Compound: COCC(Oc1cc(-c2nn(C)c3c(-c4cnn(C5CCN(C)CC5)c4)cnc(N)c23)ccc1NS(=O)(=O)C(F)F)c1ccc(F)cc1 (stereo not drawn) [Compound 139, N-(4-(4-amino-1-methyl-7-(1-(1-methyl-piperidin-4-yl)-1H-pyrazol-4-yl)-1H-pyrazolo[4,3-c]pyridin-3-yl)-2-(1-(4-fluorophenyl)-2-methoxyethoxy)phe-nyl)-1,1-difluoro-methanesulfonamide]
- Kd (human RIPK1): > 10 µM
- Kd (human RIPK3): > 10 µM

Compound: C[C@H](Oc1cc(-c2nn(C)c3c(-c4cnn(C5CCCNCC5)c4)cnc(N)c23)ccc1NS(=O)(=O)C(F)F)c1ccc(F)cc1 (stereo partly drawn) [Compound 74, N-(4-(4-amino-7-(1-(azepan-4-yl)-1H-pyrazol-4-yl)-1-methyl-1H-pyrazolo[4,3-c]pyridin-3-yl)-2-((S)-1-(4-fluorophenyl)ethoxy)phenyl)-1,1-difluoromethane-sulfonamide]
- Kd (human RIPK1): > 10 µM
- Kd (human RIPK3): > 10 µM

Compound: C[C@H](Oc1cc(-c2nn(C)c3c(-c4ccc(N5CCN(C)CC5)nc4)cnc(N)c23)ccc1NS(=O)(=O)C(F)F)c1ccc(F)cc1 [Compound 107, (S)-N-(4-(4-amino-1-methyl-7-(6-(4-methylpiperazin-1-yl)pyridin-3-yl)-1H-pyrazolo[4,3-c]pyridin-3-yl)-2-(1-(4-fluorophenyl)ethoxy)phenyl)-1,1-difluoromethanesulfonamide]
- Kd (human RIPK1): > 10 µM
- Kd (human RIPK3): > 10 µM

Compound: Nc1n[nH]c2ccnc(-c3ccc(NS(=O)(=O)C(F)F)c(OCc4ccc(F)cc4)c3)c12 [Compound 68, N-(4-(3-amino-1H-pyrazolo[4,3-c]pyridin-4-yl)-2-((4-fluorophenyl)methoxy)phenyl)-1,1-difluoromethanesulfonamide]
- Kd (human RIPK1): > 10 µM
- Kd (human RIPK3): > 10 µM

Compound: C[C@H](Oc1cc(-c2nn(C)c3c(N4CCOCC4)cnc(N)c23)ccc1NS(=O)(=O)C(F)F)c1ccc(F)cc1 [Compound 141, N-{4-[4-amino-1-methyl-7-(morpholin-4-yl)-1H-pyrazolo[4,3-c]pyridin-3-yl]-2-[(1S)-1-(4-fluorophenyl)ethoxy]phenyl}-1,1-difluoromethanesulfonamide]
- Kd (human RIPK1): > 10 µM
- Kd (human RIPK3): > 10 µM

Compound: C[C@H](Oc1cc(-c2nn(C)c3c(-c4cnn(C5CCOCC5)c4)cnc(N)c23)ccc1NS(=O)(=O)N(C)C)c1ccc(F)cc1 [Compound 124]
- Kd (human RIPK1): > 10 µM
- Kd (human RIPK3): > 10 µM

Compound: COC[C@@H](Oc1cc(-c2nn(C)c3c(-c4cnn(C5CCOCC5)c4)cnc(N)c23)ccc1NS(=O)(=O)C(F)F)c1ccc(F)cc1 [Compound 112, (S)—N-(4-(4-amino-1-methyl-7-(1-(tetrahydro-2H-pyran-4-yl)-1H-pyrazol-4-yl)-1H-pyrazolo[4,3-c]pyridin-3-yl)-2-(1-(4-fluorophenyl)-2-methoxyethoxy)phenyl)-1,1-difluoromethanesulfonamide]
- Kd (human RIPK1): > 10 µM
- Kd (human RIPK3): > 10 µM

Source: patent publication US20250115598A1 (Anaxis Pharma Pty Ltd, priority 2021, published 2025)
